# Experiments:
# advanced solid tumors = assay: Antitumor activity (RECIST 1.1 tumor response, PFS, OS, STAT3 SNP genotype); format: in vivo, Japanese patients
# Method: Assessments of antitumor activity were objective tumor response, median progression-free survival (PFS) and median overall survival (OS). Tumor response was evaluated according to RECIST 1.1 [21]. Median PFS was defined as the time from the day of the first dose of napabucasin to the date of progressive disease (PD), if neither was observed, the patient was to be censored at the last assessment of tumor response. Median OS was defined as the time from the first dose of napabucasin to the date of death from any cause. Patients who were still alive at the final observation were to be censored at the date they were last known to be alive. STAT3 single nucleotide polymorphism (SNP) genotyping was carried out using DNA extracted from whole blood samples to assess tumor response, median PFS, and median OS. Immunohistochemistry (IHC), mutation analysis (Oncomine Comprehensive Assay), and microsatellite instability analyses were performed in tumor tissue samples obtained from patients who provided additional consent to assess the relationship between specific biomarkers and the antitumor activity of napabucasin. IHC staining of phosphorylated STAT3 (pSTAT3) was carried out on archived tumor samples which were collected pre-treatment, and de novo lesions during and post-treatment were also collected, according to the protocol of a recent Phase 3 study. Positive pSTAT3 staining was defined as cancer cell nuclear staining ≥ 5% plus a stroma staining score of at least 2. The biomarker testing facility was responsible for IHC staining and storage of tumor samples. If consent to a genetic test was withdrawn, samples and associated analyses were discarded.
# The safety and antitumor activity (intention-to-treat [ITT]) analysis populations included all patients that received at least one dose of napabucasin. The DLT analysis population included all patients that received at least one dose of napabucasin with at least 80% compliance ([number of capsules actually ingested/number of capsules that should have been ingested per dose […]] × 100) during the DLT evaluation period, and those patients who experienced DLT during the evaluation period regardless of compliance. The PK population included all patients that received at least one dose of napabucasin and had plasma napabucasin concentration data for at least one-time point after the first dose of napabucasin.
# [1] = design: method as in doi:10.1200/JCO.2018.36.15_suppl.4110, doi:10.1200/JCO.2017.35.4_suppl.593; settings: napabucasin 240 mg BID in combination with standard treatment; cited from earlier work
structure (smiles),measurement,setting,value
CC(=O)c1cc2c(o1)C(=O)c1ccccc1C2=O [napabucasin],Median OS,advanced solid tumors; Cohort 1 (480 mg/day),8.28 months
same,Median PFS,advanced solid tumors; Cohort 1 (480 mg/day),1.87 months
same,Median OS,advanced solid tumors; Cohort 2 (960 mg/day),5.03 months
same,Median PFS,advanced solid tumors; Cohort 2 (960 mg/day),1.76 months
same,Median OS,advanced solid tumors; Cohort 3 (1440 mg/day),5.68 months
same,Median PFS,advanced solid tumors; Cohort 3 (1440 mg/day),1.45 months
same,Antitumor activity by STAT3 SNP genotype,"advanced solid tumors; DNA from whole blood, G/G, C/C, C/G genotypes","no difference in antitumor activity between G/G, C/C, and C/G genotypes"
same,Median OS,advanced solid tumors; ITT population,5.83 months
same,Median PFS,advanced solid tumors; ITT population,1.71 months
same,Patients with progressive disease (PD),"advanced solid tumors; RECIST 1.1, 14 patients",12 patients
same,Patients with stable disease (SD) as best overall tumor response,"advanced solid tumors; RECIST 1.1, 14 patients, both colorectal cancer",two
same,Duration of SD,advanced solid tumors; one patient in Cohort 1 (480 mg/day),56 days
same,Duration of SD,advanced solid tumors; one patient in Cohort 3 (1440 mg/day),82 days
same,Proportion of patients who achieved SD,advanced solid tumors; this study,14%
same,DLTs,[1],no DLTs
